Source: patent US20110236409A1, “O[…] FROM VARIABLE ANTIGENS, T CELL POPULATIONS AND USES THEREOF” (Helmholtz Zentrum München - Deutsches Forschungszentrum für …, priority 2008, published 2011)

How the values were obtained:
Type in all cases: cell-based, human
[1] = system: T-cell response of HIV-1 infected individuals; test: Mapping of Tat- and Nef-specific T-cell responses to single VOPSD peptides in cohorts of HIV-1 infected individuals (Elite Controllers)
[2] = system: Nef specific CD4 and CD8 T-cells (PBMC); test: Intracellular cytokine staining (IFN-γ) of CD4 and CD8 T cells, Nef peptides; conditions: subject V4; B8 restricted
Method: (§1) After thawing, PBMC were washed trice at room temperature in complete cell culture medium and plated in round bottom 96 wells/plates. All the incubations were carried out in round bottom 96 wells/plates to allow high throughput processing of the probes. 10^6 PBMC/well were incubated with 1.3 μg/ml of antibody to CD28 and with 1.3 μg/ml of antibody to CD49d (Becton Dickinson, Heidelberg, Germany) together with defined peptide pools. For each individual, a sample without peptides was included to calculate the background staining. Following one-hour incubation, 10 μg/ml of Brefeldin A were added to the cell suspension and the incubation carried out for additional 4 hours. Stimulated cells were then resuspended in Stain Buffer (0.2% BSA, 0.09% Na Azide in DPBS; Becton Dickinson) and incubated with the photoreactive fluorescent label ethidium monoazide (EMA; Molecular Probes, Leiden, The Netherlands) used as viability dye. After washing, cells were fixed and permeabilized using the BD Cytofix/Cytoperm™ Kit, (Becton Dickinson). […]
(§2) Following background subtraction, the threshold level was calculated using the 90 percentile of the negative values. […]
In this way, the authors could establish whether the higher number of individual responses measured with the new set of overlapping peptides was restricted to the CD8 compartment or interested also CD4 T-cell recognition.

[3] = system: CD45RA+ IFN-γ− IL-2− MIP-1β+ CD8 T-cells; test: Polychromatic intracellular cytokine staining, detection of CD45RA+ IFN-γ− IL-2− MIP-1β+ CD8 T-cells; conditions: subject V4
Method: as §1, with “Dickinson). Then, the following fluorochrome-conjugated antibodies were added to the cell suspension: CD3-AmCyan, CD4-PerCP, CD45RA-PECy7, CD154-FITC, IFNγ-A1700, IL2-APC and MIP1β-PE from Becton Dickinson and CD8-PacB from DAKO (Hamburg, Germany).” for “Dickinson).”
as §2

[4] = system: Peripheral blood mononuclear cells (PBMC) of HIV-1 infected individuals; test: Ex vivo ELISPOT assay for single-cell IFN-γ release, HIV-infected individuals; conditions: patient HSR-028
Method: Peripheral blood mononuclear cells (PBMC) were seeded in duplicate at 2×10^5 cells/well in 96-well plates (MAIPS4510; Millipore, Bedford, Mass.) precoated with anti-IFN-γ capture monoclonal antibody (B-B1; Diaclone, Besancon, France) and stimulated with the different peptide pools at the fixed concentration of 3 μg/ml of each peptide for 18 h at 37° C. in air plus 5% CO2. Biotinylated anti-IFN-γ detection monoclonal antibody (B-G1; Diaclone) was added for 2 h, followed by the addition of streptavidin-alkaline phosphatase conjugate (Amersham Pharmacia Biotech Europe GmbH, Freiburg, Germany) for 1 h. A chromogenic substrate (nitroblue tetrazolium-BCIP [5-bromo-4-chloro-3-indolylphosphate]; Sigma, St. Louis, Mo.) was added for 10 min. The individual spots were counted by using an Automated ELISA-Spot Assay Video Analysis System, Eli-Scan with the software Eli.Analyse V4.2 (A.EL.VIS, Hannover, Germany).
The responses were empirically scored as positive if the test wells contained a mean number of spot-forming cells (SFC) higher than the mean value plus two standard deviations in negative control wells, and if the number of SFC per million PBMC in stimulated wells (subtracted of the values of negative control wells) was ≧50. PBMC in medium alone were used to establish the negative control background, that had to be not higher than 50 SFC per million of cells (10 SFC/well). […]

[5] = Controllers Upon Suspension (CUS)

Q: LEPWKHPGSQPKTACTNCY [peptide 2.2] was tested. Which “individuals recognizing the peptide” value ([1]; Elite Controllers (EC)) did it give?
A: 5/9

Q: FLKEKGGL was tested. Which “CD8 T-cell response to the epitope” value [2] did it give?
A: strong CD8 T-cell response

Q: And the “detection of CD45RA+ IFN-γ− IL-2− MIP-1β+ CD8 T-cells” value [3]?
A: detected

Q: MEPVDPRLEPW [VOPSD Tat peptide 1] was tested. Which “peptide concentration of maximal recognition (single peptide titration)” value [4] did it give?
A: 0.5 µM

Q: Which results are given for VLEWRFDSRLAFHHVAREL [peptide 5.29]?
A: individuals recognizing the peptide ([1]; Elite Controllers (EC)): 7/13; immunodominant response in groups other than EC ([1]; all other groups of HIV-1 infected individuals): not for any of the all the other groups of HIV-1 infected individuals

Q: Which results are given for QVCFITKALGISYGR [peptide 2.6]?
A: individuals recognizing the peptide ([1]; CHI w T): 1/15; individuals recognizing the peptide ([1]; CHI w/o T): 1/13; individuals recognizing the peptide [1, 5]: 1/5; individuals recognizing the peptide ([1]; Elite Controllers (EC)): 7/13

Q: For “EPVDPRLEPWKHPGSQPKTA [20mer homolog, 20mer homolog of VOPSD Tat peptide 1 from the standard Tat 20mer set, reference compound]”, which “peptide concentration of maximal recognition (single peptide titration)” value [4] is on record?
A: recognized only at the highest concentration tested

Q: With KKCCFHCQVCFITKALGI [peptide 2.5] as the sequence, how does the “individuals recognizing the peptide” value ([1]; CHI w T) read?
A: 1/15

Q: What about the “individuals recognizing the peptide” value [1, 5] of the same sequence?
A: 1/5

Q: What about the “individuals recognizing the peptide” value ([1]; Elite Controllers (EC)) of the same sequence?
A: 4/13

Q: And the “individuals recognizing the peptide” value ([1]; LTNP)?
A: 1/6
